We go through one compound from patent publication US12605358B2, “Composition for preventing or treating nervous system diseases comprising compound that inhibits mTOR signaling pathway as active ingredient” (ALIAD BIOPHARMA, priority 2021, dated 2026).

In test [1] the test system is primary cultured cerebral neurons. The test can be described thus: Aβ accumulation (6E10) and LC3 double staining. Format: cell-based, rat. To be noted: Aβ 0.5 or 1 μM, HN-1703 0.1 or 0.5 μM, 12 or 24 hours, FIG. 4. The protocol: Primary neurons culture was performed from the cerebral cortex of E16 embryos on embryonic day 16 of […] (SD, Orient Bio). Primary neurons culture (cortical neurons culture) was performed from the cerebral cortex of rat (SD, Orient Bio) embryonic 16-day (E16) embryos. The left and right hemispheres of the extracted brain were separated using sterile tweezers under a dissecting microscope, the meninges were peeled off, and then the cerebral cortex region was cut with No. 5 tweezers and collected in a Ca^2+/Mg^2+-free HBSS (Invitrogen), and mixed with an equal amount of 0.25% trypsin in a 15 ml tube and treated in a 37° C. water bath for 10 to 15 minutes. Thereafter, trypsin was inactivated by removing a portion of trypsin, leaving 1 to 2 ml of trypsin, and then adding the same amount of 20% FBS-DMEM. […]
As confirmed in Experimental Example 2 that HN-1703 may effectively promote autophagy, it was evaluated whether HN-1703 may remove Aβ oligomers accumulated in cells. In the rat embryonic (E16) cerebral cortex region, primary cultured cerebral neurons were treated with […] or 1 μM Aβ and 0.1 μM or 0.5 μM HN-1703 for 12 or 24 hours, and accumulated Aβ was stained with a 6E10 antibody and autophagy formation was simultaneously double-stained with an LC3 antibody and measured, and cell nuclei were labeled with DAPI. […]

In the next test the test system is 5xFAD transgenic mice. Put plainly: Senile plaques removal, Thioflavin-S staining of brain slices. Format: in vivo. The protocol:
5xFAD animals were administered with HN-1703 at three doses for 14 days to male heterozygotes aged 6 months (all born within 3 days). The behaviors of mice were measured in a dark cycle in which the mice were active while alternating light and dark in a 12-hour cycle in a breeding room chamber, and the mice were freely accessible to food and water and bred in compliance with experimental animal ethical guidelines of Kyung Hee University. In each group, the HN-1703 was intraperitoneally injected at the same time once a day in a volume of 100 μl to 12 mice in a normal group (wild type littermate), 9 5xFAD mice in a vehicle (DMSO administration), 8 5xFAD mice in a 5 mg/kg administered group, 9 5xFAD mice in a 10 mg/kg administered group, and 9 5xFAD mice in a 20 mg/kg administered group. […] In a behavioral measurement room, humidity (40 to 60%) and temperature (22 to 26° C.) were maintained, and reflected light was maintained to avoid sound and light effects. Behavioral measures were measured in Y-maze, Morris Water Maze, and Passive Avoidance test for 18 days in sequence.
A brain slice immunostaining method was modified and used as described in Heo H et al. (J Ethnopharmacol, 2009). Mice were transcardially perfused with 4% PFA. After being immersed and fixed in 4% PFA for 4 hours, the brain tissue was unfrozen in 30% sucrose, frozen in an optimal cutting temperature (OCT) mixture, and stored at −80° C. Brain tissue slices were sectioned in a coronal direction at a thickness of 35 μm. The brain tissue slices were immersed in a storage solution (30% glycerol, 30% ethylene glycol, PBS) and stored at 4° C. The stored brain slices were permeabilized in 0.5% Triton X-100 for 20 minutes and shaken in 2 N HCl for 30 minutes at 37° C. Then, the brain slices were blocked in a free-floating state for 2 hours in 15% standard serum, 3% bovine serum albumin (BSA, bio-WORLD, Dublin, OH, USA) and 0.1% Triton X-100. The slices were shaken with a first antibody for 16 hours at 4° C. Thereafter, a second antibody complementary to the first antibody was attached at room temperature (22±1° C.) for 45 minutes. Then, the nuclei were washed with physiological saline (PBS) containing 1 μg/ml PI (propidiumiodide, Sigma) or DAPI (1:4000), and then placed on a slide glass and sealed using an aqueous mount, and observed under a confocal scanning microscope for tissue observation (LSM 810 Carl Zeiss, Oberkochen, Germany).
Brain slices segmented in a coronal direction were selected from the front to the back of the brain by one slice every 5 slices, and 5 to 11 slices for each animal's brain were co-stained with thioflavin-S and DAPI.
FIG. 7 is confocal scanning micrographs of the hippocampal dentate gyrus, and the entorhinal cortex and temporal lobe of the cerebral cortex, after staining senile plaques by treating the brain slice with Thioflavin-S, and FIG. 8 illustrates quantifying the entire area and staining intensity of the senile plaques stained with Thioflavin-S.

Where [2] appears, read: compared to the 5xFAD-DMSO control group, FIG. 8.

`COc1cc(OC)c2c(=O)c3cc4c(cc3oc2c1)OCO4` [HN-1703, 7,9-dimethoxy-10H-[1,3]dioxolo[4,5-b]xanthen-10-one]: the “Aβ accumulated in cells removed” value in test [1] is reported as no less than 50%. Further, the “increase of the area of LC3 puncta” value in test [1] (concentration-dependent) is recorded as no less than 4 times. The “reduction of senile plaques compared to the 5xFAD-DMSO group” value in the test on 5xFAD transgenic mice (20 mg/kg, dentate gyrus, FIG. 7) is given as no less than 70%. Moreover, in the test with 5xFAD transgenic mice (5 to 20 mg/kg, hippocampal dentate gyrus, entorhinal cortex, temporal lobe, FIG. 7), the “senile plaques stained with Thioflavin-S” value is reported as “reduced in a dose-dependent manner”. The “number of senile plaques having sizes of 10 to 20 μm and 20 μm or more” value in the test on 5xFAD transgenic mice (all brain regions tested, compared to the 5xFAD-DMSO control group, FIG. 8) is “decreased in a dose-dependent manner”. In the test on 5xFAD transgenic mice (setting [2]), the “entire area of senile plaques” value is listed as “decreased in a dose-dependent manner” and the “staining intensity of senile plaques” value is reported as “decreased in a dose-dependent manner”.
